Molecules are shown by their SMILES.

The test system of the first experiment is RSV Long strain. Kind of experiment: Viral cytopathic effect (CPE) assay, anti-RSV activity. The format is cell-based, Respiratory Syncytial Virus. To be noted: RSV Long strain (ATCC); cell viability after 6 days, Cell Counting kit-8. The method in brief:
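EC50 was derived from CCK-8 viability at 450/630 nm measured 6 days post-infection. Infection used enough RSV Long strain for approximately 80–90% cytopathic effect, in the presence of half-log serially diluted compound. Cells were plated the day before at 6×10^3 per well in DMEM/10% FBS.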
On the technique in general: Damage to the host cells serves as the signal in cytopathic effect assays.
`Cc1ccc2nc(N3CC[S+]([O-])c4ccccc4C3)cc(NCC3(N)COC3)c2c1` (stereo not drawn) [Example 18-1, N-[(3-Aminooxetan-3-yl)methyl]-6-methyl-2-(1-oxido-2,3-dihydro-1,4-benzothiazepin-4(5H)-yl)quinolin-4-amine]: the EC50 (usually the concentration needed to bring the measured effect to its halfway point) worked out at 0.003 µM.

The same experiment, now with this note: human respiratory syncytial virus, 144 h, RSV Long strain (ATCC); cell viability after 6 days, Cell Counting kit-8.
In turn, `CNCCNc1cc(N2CCS(=O)(=O)c3ccccc3C2)nc2ccc(C)cc12` [Example 3-31, N-[2-(1,1-Dioxido-2,3-dihydro-1,4-benzothiazepin-4(5H)-yl)-6-methylquinolin-4-yl]-N′-methylethane-1,2-diamine] yielded an EC50 of 0.014 µM.
`NCCNc1cc(N2CCCc3ccccc3C2)nc2ccc(F)cc12` [Example 118-21, N-[6-Fluoro-2-(1,3,4,5-tetrahydro-2H-2-benzazepin-2-yl)quinolin-4-yl]ethane-1,2-diamine] had an EC50 of 1.38 µM.
Still for that read-out and setting: in the case of `Cc1ccc2nc(N3CCS(=O)(=O)c4ccccc4C3)cc(N[C@H]3CC[C@H](O)CC3)c2c1` [Example 8-1, trans-4-{[2-(1,1-Dioxido-2,3-dihydro-1,4-benzothiazepin-4(5H)-yl)-6-methylquinolin-4-yl]amino}cyclohexanol] it was 5.51 µM; in that of `Cc1ccc2nc(N3CCS(=O)(=O)c4ccccc4C3)cc(NC(C)(C)CN)c2c1` [Example 9-17, N^˜2^˜-[2-(1,1-Dioxido-2,3-dihydro-1,4-benzothiazepin-4(5H)-yl)-6-methylquinolin-4-yl]-2-methylpropane-1,2-diamine], 0.025 µM; in that of `CC(=O)NCCNc1cc(N2CCS(=O)(=O)c3ccccc3C2)nc2ccc(C)cc12` [Example 63-1, N-(2-{[2-(1,1-Dioxido-2,3-dihydro-1,4-benzothiazepin-4(5H)-yl)-6-methylquinolin-4-yl]amino}ethyl)acetamide], 3.13 µM.
On the same count and under the same terms, under `CC(O)c1ccc2nc(N3CCS(=O)(=O)c4ccccc4C3)cc(NCCCN)c2c1` (stereo not drawn) [Example 82, 1-{4-[(3-Aminopropyl)amino]-2-(1,1-dioxido-2,3-dihydro-1,4-benzothiazepin-4(5H)-yl)quinolin-6-yl}ethanol] stands 0.014 µM; under `Cc1ccc2nc(N3CCS(=O)(=O)c4ccccc4C3)cc(NCC3(CN)CSC3)c2c1` [Example 6-1, N-{[3-(Aminomethyl)thietan-3-yl]methyl}-2-(1,1-dioxido-2,3-dihydro-1,4-benzothiazepin-4(5H)-yl)-6-methylquinolin-4-amine], 0.025 µM; under `Cc1ccc2nc(N3CCS(=O)(=O)c4ccccc4C3)cc(NC3CNC3)c2c1` [Example 26-1, N-(Azetidin-3-yl)-2-(1,1-dioxido-2,3-dihydro-1,4-benzothiazepin-4(5H)-yl)-6-methylquinolin-4-amine], 0.005 µM.
On the same count and under the same terms, in the case of `Cc1ccc2nc(N3CCC(F)(F)c4ccccc4C3)cc(NCC(C)N)c2c1` (stereo not drawn) [Example 110-8, N^˜1^˜-[2-(5,5-Difluoro-1,3,4,5-tetrahydro-2H-2-benzazepin-2-yl)-6-methylquinolin-4-yl]propane-1,2-diamine] it was 0.081 µM; in that of `Cc1ccc2nc(N3CCS(=O)(=O)c4ccccc4C3)cc(NC[C@@H](O)CO)c2c1` [Example 3-11, (2R)-3-{[2-(1,1-Dioxido-2,3-dihydro-1,4-benzothiazepin-4(5H)-yl)-6-methylquinolin-4-yl]amino}propane-1,2-diol], 0.054 µM; in that of `CS(=O)(=O)c1ccc2nc(N3CCCc4ccccc4C3)cc(NCCN)c2c1` [Example 118-24, N-[6-(Methylsulfonyl)-2-(1,3,4,5-tetrahydro-2H-2-benzazepin-2-yl)quinolin-4-yl]ethane-1,2-diamine], 6.45 µM.
`Cc1ccc2nc(N3CC[S+]([O-])c4ccccc4C3)cc(N3C[C@@H](N)[C@H](O)C3)c2c1` (relative stereo) [Example 19-1, trans-4-Amino-1-[6-methyl-2-(1-oxido-2,3-dihydro-1,4-benzothiazepin-4(5H)-yl)quinolin-4-yl]pyrrolidin-3-ol] showed an EC50 of 0.043 µM. This EC50 is about 150-fold lower than that of the compound before.
Same read-out and setting: in the case of `CCNCCNc1cc(N2CCS(=O)(=O)c3ccccc3C2)nc2ccc(C)cc12` [Example 3-37, N-[2-(1,1-Dioxido-2,3-dihydro-1,4-benzothiazepin-4(5H)-yl)-6-methylquinolin-4-yl]-N′-ethylethane-1,2-diamine] it was 0.017 µM; in that of `Cc1ccc2nc(N3CCS(=O)(=O)c4ccccc4C3)cc(NCCN)c2c1` [Example 9-16, N-[2-(1,1-Dioxido-2,3-dihydro-1,4-benzothiazepin-4(5H)-yl)-6-methylquinolin-4-yl]ethane-1,2-diamine], 0.005 µM.
The compound `Cc1ccc2nc(N3CCS(=O)(=O)c4ccccc4C3)cc(N3CCCNCC3)c2c1` [Example 3-36, 4-[4-(1,4-Diazepan-1-yl)-6-methylquinolin-2-yl]-2,3,4,5-tetrahydro-1,4-benzothiazepine 1,1-dioxide] registered an EC50 of 0.092 µM.
Same read-out and setting: in the case of `Cc1ccc2nc(N3CCS(=O)(=O)c4ccccc4C3)cc(NCCC(N)=O)c2c1` [Example 36-1, N^˜3^˜-[2-(1,1-Dioxido-2,3-dihydro-1,4-benzothiazepin-4(5H)-yl)-6-methylquinolin-4-yl]-beta-alaninamide] it was 0.073 µM; in that of `Cc1ccc2nc(N3CCS(=O)(=O)c4ccccc4C3)cc(Nc3cc[nH]n3)c2c1` [Example 47-3, 2-(1,1-Dioxido-2,3-dihydro-1,4-benzothiazepin-4(5H)-yl)-6-methyl-N-(1H-pyrazol-3-yl)quinolin-4-amine], 5.69 µM.
Turning to `CO/N=C1\CCN(c2cc(NCC3(N)COC3)c3cc(C)ccc3n2)Cc2ccccc21` [Example 112-2, N-[(3-Aminooxetan-3-yl)methyl]-2-[(5E)-5-(methoxyimino)-1,3,4,5-tetrahydro-2H-2-benzazepin-2-yl]-6-methylquinolin-4-amine], it took 0.092 µM to reach a half-maximal effect (EC50).
Same read-out and setting: under `Cc1ccc2nc(N3CCC(=O)c4ccccc4C3)nc(NCC3(N)COC3)c2c1` [Example 114-1, 2-(4-{[(3-Aminooxetan-3-yl)methyl]amino}-6-methylquinazolin-2-yl)-1,2,3,4-tetrahydro-5H-2-benzazepin-5-one] stands 0.007 µM; under `Cc1ccc2nc(N3CCS(=O)(=O)c4ccccc4C3)cc(N3CCC(C(N)=O)C3)c2c1` (stereo not drawn) [Example 79, 1-[2-(1,1-Dioxido-2,3-dihydro-1,4-benzothiazepin-4(5H)-yl)-6-methylquinolin-4-yl]pyrrolidine-3-carboxamide], 2.79 µM.
For `Cc1ccc2nc(N3CCS(=O)(=O)c4ccccc4C3)cc(NC3CCNCC3)c2c1` [Example 3-39, 2-(1,1-Dioxido-2,3-dihydro-1,4-benzothiazepin-4(5H)-yl)-6-methyl-N-(piperidin-4-yl)quinolin-4-amine], the EC50 came to 0.03 µM.
Consider `Cc1ccc2nc(N3CCS(=O)(=O)c4ccccc4C3)cc(NCC(C)O)c2c1` (stereo not drawn) [Example 5-7, 1-{[2-(1,1-Dioxido-2,3-dihydro-1,4-benzothiazepin-4(5H)-yl)-6-methylquinolin-4-yl]amino}propan-2-ol], for which it took 0.941 µM to reach a half-maximal effect (EC50).
On the same count and under the same terms, in the case of `Cc1ccc2nc(N3CCS(=O)(=O)c4ccccc4C3)cc(NC3(CN)COC3)c2c1` [Example 71, N-[3-(Aminomethyl)oxetan-3-yl]-2-(1,1-dioxido-2,3-dihydro-1,4-benzothiazepin-4(5H)-yl)-6-methylquinolin-4-amine] it was 0.005 µM; in that of `Cc1ccc2nc(N3CCS(=O)(=O)c4ccccc4C3)cc(N3C[C@@H]4NCCO[C@@H]4C3)c2c1` [Example 8-5, 4-{4-[(4aS,7aR)-Hexahydropyrrolo[3,4-b][1,4]oxazin-6(2H)-yl]-6-methylquinolin-2-yl}-2,3,4,5-tetrahydro-1,4-benzothiazepine 1,1-dioxide], 0.074 µM; in that of `Cc1ccc2nc(N3CCC(F)(F)c4ccccc4C3)nc(NCC3(N)CS(=O)(=O)C3)c2c1` [Example 116-2, N-[(3-Amino-1,1-dioxidothietan-3-yl)methyl]-2-(5,5-difluoro-1,3,4,5-tetrahydro-2H-2-benzazepin-2-yl)-6-methylquinazolin-4-amine], 0.309 µM.
On the same count and under the same terms, in the case of `Cc1ccc2nc(N3CCC(F)(F)c4ccccc4C3)cc(N3CCN(C)CC3)c2c1` [Example 110-13, 5,5-Difluoro-2-[6-methyl-4-(4-methylpiperazin-1-yl)quinolin-2-yl]-2,3,4,5-tetrahydro-1H-2-benzazepine] it was 3.68 µM; in that of `Cc1ccc2nc(N3CCS(=O)(=O)c4ccccc4C3)cc(NCCO)c2c1F` [Example 9-22, 2-{[2-(1,1-Dioxido-2,3-dihydro-1,4-benzothiazepin-4(5H)-yl)-5-fluoro-6-methylquinolin-4-yl]amino}ethanol], 0.872 µM.
`Cc1ccc2nc(N3CCS(=O)(=O)c4ccccc4C3)cc(NCCC#N)c2c1` [Example 83, 3-{[2-(1,1-Dioxido-2,3-dihydro-1,4-benzothiazepin-4(5H)-yl)-6-methylquinolin-4-yl]amino}propanenitrile] registered an EC50 of 0.662 µM.
Still for that read-out and setting: under `Cc1ccc2nc(N3CC[S+]([O-])c4ccccc4C3)cc(NCCN)c2c1` (stereo not drawn) [Example 18-10, N-[6-Methyl-2-(1-oxido-2,3-dihydro-1,4-benzothiazepin-4(5H)-yl)quinolin-4-yl]ethane-1,2-diamine] stands 0.011 µM; under `NCC1(CNc2nc(N3CCS(=O)(=O)c4ccccc4C3)nc3ccc(Cl)cc23)COC1` [Example 56-3, N-{[3-(aminomethyl)oxetan-3-yl]methyl}-6-chloro-2-(1,1-dioxido-2,3-dihydro-1,4-benzothiazepin-4(5H)-yl)quinazolin-4-amine], 0.004 µM.
In the case of `NCCNc1cc(N2CCCc3ccccc3C2)nc2ccc(Br)cc12` [Example 118-10, N-[6-Bromo-2-(1,3,4,5-tetrahydro-2H-2-benzazepin-2-yl)quinolin-4-yl]ethane-1,2-diamine], the EC50 was found to be 0.289 µM.
Still for that read-out and setting: under `NCCNc1cc(N2CCCc3ccccc3C2)nc2ccccc12` [Example 118-9, N-[2-(1,3,4,5-Tetrahydro-2H-2-benzazepin-2-yl)quinolin-4-yl]ethane-1,2-diamine] stands 0.202 µM.

Source of the values: patent publication US8871756B2 (Hoffmann-La Roche Inc., priority 2011, dated 2014).
